Assay [1] deals with A549/OPNluc cells. The experiment in a line: WST assay for cell growth / cell viability. The class given is cell-based, human. The note with it: Homo sapiens, A549, A549/OPNluc cells, 48±4 hours, WST-1; read-out: IC50 (concentration for 50% inhibition of cell growth). The text has this: (§1) A reporter vector pOPN1-luc obtained by the insertion of a human OPN promoter sequence (−765 to 23) into the multiple cloning site of pGL-3 basic vector (Promega) expresses luciferase when transfected into animal cells. The pOPN1-luc was transfected into a human non-small cell lung cancer-derived cell line A549 together with pPUR (Clontech) that expresses a puromycin resistance gene (puromycin-N-acetyl-transferase gene), and then cells expressing luciferase which could grow a puromycin-supplemented medium were selected. The selected cells were named “A549/OPNluc cells” and used for observation of luciferase expression inhibitory effect under control of OPN promoter, as described below.
(§2) A test compound was added to a culture containing A549/OPNluc cells to observe its influence on the amount of luciferase expressed in the cells. Here, it can be considered that when the test compound has a cell cytotoxity or cell growth inhibitory effect, the total expression level of luciferase is reduced due to a reduction in the number of living cells that depends on the concentration of the test compound, and therefore the luciferase expression inhibitory effect of the test compound under control of OPN promoter cannot be properly evaluated. For this reason, WST assay for quantification of cell proliferation ability or cell viability by colorimetric measurement was firstly performed to determine IC50 (concentration for 50% inhibition of cell growth) of the test compound for cell growth. Then, luciferase activity measurement was performed to determine EC50 (concentration for 50% inhibition of luciferase expression) of the test compound for luciferase expression under control of OPN promoter.
A549/OPNluc cells were suspended in DMEM medium containing 10% fetal calf serum (FCS) and 1% penicillin/streptomycin (P/S) at 3×10^4 cells/mL to obtain a cell suspension, and then the cell suspension was dispensed into each well of a 96-well plate in an amount of 100 μL. In order to perform the assay in triplicate, wells were prepared for a control group, and 3 wells were prepared for each test compound-treated group at each concentration. After the dispensation, the 96-well plate was incubated in a CO2 incubator (at 37° C. and 5% CO2) for 24±4 hours.
The present compound was dissolved in dimethylsulfoxide (DMSO) to obtain a 50 mmol/L solution, and the compound solution was stored at −80° C. The compound solution was diluted with DMSO in 2-fold dilution series (usually, in the range of 0.31 mmol/L to 20 mmol/L) to prepare test compound solutions whose concentration varied by two fold for WST assay.
Each solution of only DMSO (control) and the diluted test compound (sample) was dispensed into each well containing the cell suspension in an amount of 0.5 μL (200-fold dilution). The solution in each well was mixed with a vortex mixer, and then the 96-well plate was incubated in a CO2 incubator (at 37° C. and 5% CO2) for 48±4 hours. Then, Premix WST-1 Reagent (TAKARA BIO INC.) was added in an amount of 10 μL to each well. The solution in each well was mixed with a vortex mixer, and then the 96-well plate was incubated at 37° C. and 5% CO2. After 60 minutes or 120 minutes, the absorbance values (450 nm) were measured with a microplate reader (Bio-Rad; Benchmark or Thermo Scientific; Varioskan Flash).
The absorbance values of the control wells and the sample wells at each concentration were input into an Excel file to determine the percentages of absorbance values of the sample wells at each concentration with to the average absorbance value of the control wells. From the determined values, a fitted curve was determined by the method of least squares to calculate IC50.
A general note: Formazan colour is commonly taken as a measure of viable cells.

Assay [2] concerns human OPN promoter (pOPN1-luc) in A549/OPNluc cells. Description: Luciferase assay: luciferase expression under control of OPN promoter. The assay is classed as cell-based. The note with it: Homo sapiens.
Source text: as §1, §2
The same steps as in the above-mentioned WST assay were performed in which each solution of only DMSO (control) or the diluted test compound (sample) was added in an amount of 0.5 μL to each well containing the cell suspension to achieve 200-fold dilution, and the solution in each well was mixed with a vortex mixer, and the 96-well plate was incubated in a CO2 incubator (at 37° C. and 5% CO2) for 48±4 hours.
Luciferase Assay Substrate (hereinafter referred to as “LAS”) supplied in Luciferase Assay Systems (Promega: Cat #E1500) was dissolved in Luciferase Assay Buffer (LAB) to prepare a luciferase reagent. 5×Cell Culture Lysis Reagent (hereinafter referred to as “CCLR”) was diluted by 5 times with water to prepare 1×CCLR.
After the incubation for 48±4 hours, the medium in each well was completely removed, and 1×CCLR was dispensed into each well in an amount of 50 μL. The 96-well plate was allowed to stand at room temperature for 30 minutes, and then 1×CCLR in each well was used as an assay sample. The luciferase reagent (100 μL) was placed in a tube for chemiluminescence measurement, and the assay sample (20 μL) was added to the tube and mixed with the luciferase reagent to measure chemiluminescence (Relative Luminescence Intensity: RLU) using TB 20/20 (Promega) or GloMax 20/20 (Promega).
The RLU values of the control wells and the sample wells at each concentration were input into an Excel file, and the percentages of RLU values of the sample wells at each concentration to the average RLU value of the control wells were determined. From these values, a fitted curve was determined by the method of least squares to calculate EC50. Also, the percentages of RLU values of the sample wells at each concentration to the average RLU value of the control wells were divided by the percentages of absorbance values of the compounds in WST assay at the same concentrations as those of this assay (to the control), and a fitted curve was determined from the calculated values by the method of least squares to calculate corrected EC50.

[3] abbreviates: A549, A549/OPNluc cells, 48±4 hours, read-out: EC50 (concentration for 50% inhibition of luciferase expression).
Where [4] appears, read: A549, EC50 corrected for decrease in viable cells (RLU % divided by WST %), read-out: corrected EC50.

The values below come from patent US11040937B2, “Amide derivative” (TOHOKU UNIVERSITY, priority 2014, dated 2021).

SMILES strings stand for the structures. Where two headings read alike, the source gives them in different places.

With `Nc1c(Oc2ccc(O)cc2)cccc1C(=O)CCNC(=O)c1ccc(O)cc1` [Compound 1, N-(3-(2-Amino-3-(4-hydroxyphenoxy)phenyl)-3-oxopropyl)-4-hydroxybenzamide], the IC50 in assay [1] is 65.9 µM. Moreover, the figures for the EC50 in assay [2] (setting [3]) and in assay [2] (setting [4]) were 17.1 µM and 24.5 µM, respectively.

With `O=C(NCCc1c[nH]c2c(Oc3ccc(O)cc3)cccc12)c1ccc(O)cc1` [Compound 2, 4-Hydroxy-N-(2-(7-(4-hydroxyphenoxy)-1H-indol-3-yl)ethyl)benzamide], in assay [1], the IC50 came out at 51 µM. Also, the EC50 in assay [2] (setting [3]) came to 26.8 µM; in assay [2] (setting [4]), 60.3 µM.

In the case of `O=C(NCCC(=O)c1cccc(O)c1O)c1ccc(Oc2ccc(O)cc2)cc1` [Compound 3, N-(3-(2,3-Dihydroxyphenyl)-3-oxopropyl)-4-(4-hydroxyphenoxy)benzamide], the IC50 in assay [1] is 32.5 µM. Also, the values for the EC50 in assay [2] (setting [3]) and in assay [2] (setting [4]) were 32.2 µM and 103 µM, respectively.

Take `COc1ccc(C(=O)NCCC(=O)c2cccc(Oc3ccc(O)cc3)c2N)cc1` [Compound 4, N-(3-(2-Amino-3-(4-hydroxyphenoxy)phenyl)-3-oxopropyl)-4-methoxybenzamide]: the IC50 in assay [1] was 67.1 µM. Moreover, the figures for the EC50 in assay [2] (setting [3]) and in assay [2] (setting [4]) were 27.6 µM and 37 µM, respectively.

Consider `COc1ccc(Oc2cccc(C(=O)CCNC(=O)c3ccc(OC)cc3)c2N)cc1` [Compound 5, N-(3-(2-Amino-3-(4-methoxyphenoxy)phenyl)-3-oxopropyl)-4-methoxybenzamide], for which the IC50 in assay [1] was 64.9 µM. In addition, the EC50 in assay [2] (setting [3]) came out at 19.5 µM; in assay [2] (setting [4]), 22.6 µM.

In the case of `COc1cccc(C(=O)NCCC(=O)c2cccc(Oc3ccc(O)cc3)c2N)c1` [Compound 7, N-(3-(2-Amino-3-(4-hydroxyphenoxy)phenyl)-3-oxopropyl)-3-methoxybenzamide], in assay [1], the IC50 stood at 63.3 µM. Moreover, the EC50 in assay [2] (setting [3]) worked out at 35.6 µM; in assay [2] (setting [4]), 43.7 µM.

Turning to `CC(=O)NCCC(=O)c1cccc(Oc2ccc(O)cc2)c1N` [Compound 8, N-(3-(2-Amino-3-(4-hydroxyphenoxy)phenyl)-3-oxopropyl)-acetamide], the IC50 in assay [1] was greater than 100 µM. Also, the EC50 in assay [2] (setting [3]) is greater than 100 µM.

Take `Nc1c(Oc2ccc(O)cc2)cccc1C(=O)CCNC(=O)c1ccc(F)cc1` [Compound 9, N-(3-(2-Amino-3-(4-hydroxyphenoxy)phenyl)-3-oxopropyl)-4-fluorobenzamide]: the IC50 in assay [1] turned out to be 93.7 µM. Moreover, the EC50 amounted to 41.5 µM in assay [2] (setting [3]) and 65.6 µM in assay [2] (setting [4]).

Regarding `Nc1c(Oc2ccc(O)cc2)cccc1C(=O)CCNC(=O)C1CCCCC1` [Compound 10, N-(3-(2-Amino-3-(4-hydroxyphenoxy)phenyl)-3-oxopropyl)-cyclohexanecarboxamide], in assay [1], the IC50 came to 52.8 µM. Moreover, the values for the EC50 in assay [2] (setting [3]) and in assay [2] (setting [4]) were 31.5 µM and 41.7 µM, respectively.

In the case of `Nc1c(Oc2ccc(O)cc2)cccc1C(=O)CCNC(=O)C1CCOCC1` [Compound 11, N-(3-(2-Amino-3-(4-hydroxyphenoxy)phenyl)-3-oxopropyl)-(tetrahydro-2H-pyran-4-yl)-carboxamide], the IC50 in assay [1] came to 200 µM. Further, the EC50 in assay [2] (setting [3]) turned out to be 166 µM.

On to `COc1cccc(C(=O)CCNC(=O)c2ccc(O)cc2)c1N` [Compound 12, N-(3-(2-Amino-3-methoxyphenyl)-3-oxopropyl)-4-hydroxybenzamide], for which the IC50 in assay [1] is greater than 200 µM. In assay [2] (setting [3]), the EC50 was greater than 200 µM.

For the compound `Nc1c(O)cccc1C(=O)CCNC(=O)c1ccc(O)cc1` [Compound 13, N-(3-(2-Amine-3-hydroxyphenyl)-3-oxopropyl)-4-hydroxybenzamide], the IC50 in assay [1] was greater than 200 µM. The EC50 in assay [2] (setting [3]) was greater than 200 µM.

Regarding `Cc1ccc(Oc2cccc(C(=O)CCNC(=O)c3ccc(O)cc3)c2N)cc1` [Compound 14, N-(3-(2-Amino-3-(4-methylphenoxy)phenyl)-3-oxopropyl)-4-hydroxybenzamide], the IC50 in assay [1] is 61.1 µM. For the same compound, the EC50 in assay [2] (setting [3]) stood at 5.6 µM; in assay [2] (setting [4]), 5 µM.

In the case of `Nc1c(Oc2ccc(C(F)(F)F)cc2)cccc1C(=O)CCNC(=O)c1ccc(O)cc1` [Compound 15, N-(3-(2-Amino-3-(4-(trifluoromethyl)phenoxy)phenyl)-3-oxopropyl)-4-hydroxybenzamide], in assay [1], the IC50 is 35.4 µM. Besides, the EC50 came out at 5.6 µM in assay [2] (setting [3]) and 5.3 µM in assay [2] (setting [4]).

`COc1ccc(Oc2cccc(C(=O)CCNC(=O)c3ccc(O)cc3)c2N)cc1OC` [Compound 16, N-(3-(2-Amino-3-(3,4-dimethoxyphenoxy)phenyl)-3-oxopropyl)-4-hydroxybenzamide]: the IC50 in assay [1] is 34.9 µM. Besides, the values for the EC50 in assay [2] (setting [3]) and in assay [2] (setting [4]) were 9.8 µM and 12.5 µM, respectively.

For the compound `Nc1c(Oc2ccc(Cl)cc2)cccc1C(=O)CCNC(=O)c1ccc(O)cc1` [Compound 17, N-(3-(2-Amino-3-(4-chlorophenoxy)phenyl)-3-oxopropyl)-4-hydroxybenzamide], the IC50 in assay [1] is 47.7 µM. In addition, the EC50 in assay [2] (setting [3]) turned out to be 3.7 µM; in assay [2] (setting [4]) it was 4.2 µM.

As to `O=C1NCCc2c1[nH]c1c(Oc3ccc(O)cc3)cccc21` [Compound 18, 8-(4-Hydroxyphenoxy)-1,2,3,4-tetrahydro-β-carboline-1-one], the IC50 in assay [1] stood at 49.4 µM. Also, the EC50 in assay [2] (setting [3]) was greater than 50 µM.

Consider `CC(=O)Nc1ccc(C(=O)NCCC(=O)c2cccc(Oc3ccc(Cl)cc3)c2N)cc1` [Compound 20, N-(3-(2-amino-3-(4-chlorophenoxy)phenyl)-3-oxopropyl)-4-acetylaminobenzamide], for which, in assay [1], the IC50 was greater than 100 µM. Further, the results for the EC50 in assay [2] (setting [3]) and in assay [2] (setting [4]) were 16.3 µM and 18 µM, respectively.

Turning to `COc1ccc(Oc2cccc(C(=O)NCCNC(=O)c3ccc(O)cc3)c2)cc1` [Compound 21, N-(2-(3-(4-Methoxyphenoxy)benzoylamino)ethyl)-4-hydroxybenzamide], the IC50 in assay [1] turned out to be 95.9 µM. Further, the EC50 was determined as 16.1 µM in assay [2] (setting [3]) and 17 µM in assay [2] (setting [4]).

Turning to `COc1ccc(Oc2ccccc2C(=O)NCCNC(=O)c2ccc(O)cc2)cc1` [Compound 22, N-(2-(2-(4-Methoxyphenoxy)benzoylamino)ethyl)-4-hydroxybenzamide], the IC50 in assay [1] was greater than 100 µM. Moreover, the figures for the EC50 in assay [2] (setting [3]) and in assay [2] (setting [4]) were 42.2 µM and 50.4 µM, respectively.
